What was measured:
Format in all cases: biochemical
[1] = target: furin (Homo sapiens, UniProt P09958); assay: Enzyme kinetic assay with furin (selectivity); conditions: at concentrations of 75 μM
Excerpt: (§1) Some of the latter group, like the peptidic arginal8 or boroarginine derivatives,10 form a reversible covalent bond with their target. […] With respect to virus replication, mutations in allosteric binding pockets are better tolerated than changes in the active site, which often lead to a more severe influence on the fitness of the virus.31, 32 This advantage justifies further efforts for the improvement of active site inhibitors. One strategy to reduce the conformational freedom of peptide derivatives and predisposing them to a favorable orientation for binding is their macrocyclization, leading to improved potency, selectivity and stability.33 By this approach, we have prepared numerous noncovalent inhibitors with excellent selectivity for the tested flavivirins, when compared with trypsin‐like serine proteases or basic proprotein convertases. […] The deep S1 pocket of trypsin34 and furin35 cannot tolerate a branching close to the basic P1 guanidine anchor, which is well accepted by the flavivirins due to their flat and open S1 site. In contrast to some of our previously described linear C‐terminal elongated derivatives,18, 36 the cyclic derivatives are fully stable when incubated with bZiPro, as analyzed by mass spectrometry (Figure S3). […]

[2] = target: T1, trypsin (Bos taurus, UniProt P00760); assay: Enzyme kinetic assay with trypsin (selectivity); conditions: at concentrations of 75 μM
T1 construct: gene PRSS1
T1 sequence (P00760 24-246): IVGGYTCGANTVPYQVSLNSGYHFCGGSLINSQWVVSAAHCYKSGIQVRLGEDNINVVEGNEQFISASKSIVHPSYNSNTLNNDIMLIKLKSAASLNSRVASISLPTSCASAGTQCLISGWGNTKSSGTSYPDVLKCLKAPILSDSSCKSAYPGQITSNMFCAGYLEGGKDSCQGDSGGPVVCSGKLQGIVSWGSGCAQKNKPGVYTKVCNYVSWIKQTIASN
Excerpt: as §1

[3] = target: T2, WNV NS2B-NS3 protease (WNV-Pro) (West Nile virus, UniProt P06935); assay: Enzyme kinetics with the covalent WNV NS2B-NS3 construct, substrate Phac-Leu-Lys-Lys-Arg-AMC
T2 construct: NS3 has to form a complex with its cofactor NS2B to achieve proteolytic activity; The viral protease consists of the N‐terminal third of the nonstructural protein NS3
T2 sequence (P06935 1424-1463): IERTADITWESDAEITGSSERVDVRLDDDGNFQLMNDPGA
T2 sequence (P06935 1502-1679): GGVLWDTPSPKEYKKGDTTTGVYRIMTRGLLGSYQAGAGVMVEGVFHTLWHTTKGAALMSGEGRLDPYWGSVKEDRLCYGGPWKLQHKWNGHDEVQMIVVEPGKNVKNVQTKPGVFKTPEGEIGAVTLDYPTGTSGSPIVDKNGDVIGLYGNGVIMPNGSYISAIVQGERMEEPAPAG
Procedure: (§2) Enzyme kinetics. Measurements with bZiPro15 and the covalent WNV NS2B‐NS3 construct^10 were performed at room temperature in black 96 well plates using a Fluoroskan Ascent® plate reader (Thermo Fisher Scientific, Vantaa, Finland) with λ ex at 355 nm and λ em at 460 nm. Each well contained 125 μL inhibitor dissolved in buffer (for bZiPro: 20 mM Tris×HCl pH 8.5, 2 mM DTT, 10 w/v glycerol and 0.01 w/v Triton X‐100;18 for WNV protease: 100 mM Tris×HCl pH 8.5, containing 32 w/v glycerol and 0.01 w/v Triton X‐10012) and 50 μL substrate Phac‐Leu‐Lys‐Lys‐Arg‐AMC12 (40 μM for bZiPro (10 μM in assay, K M=1.4 μM) and 400 μM for the WNV protease (100 μM in assay, K M=53 μM)). The measurements were started by addition of 25 μL enzyme solution (16 nM for bZiPro (2.0 nM in assay), and 64 nM for the WNV protease (8.0 nM in assay)). Data points were collected each 15 s over a period of 10 min using eight different inhibitor concentrations. […] The K i values and their standard deviation were obtained from at least three independent measurements.(1) vi=Vmax×[S]/KM1+[I]/Ki+[S]

[4] = target: T3, bD4Pro (unlinked binary dengue-4 virus NS2B-NS3 protease) (Dengue virus type 4, UniProt Q2YHF2); assay: Enzyme kinetics with bD4Pro, substrate Benzoyl-Nle-Lys-Arg-Arg-AMC
T3 construct: The viral protease consists of the N‐terminal third of the nonstructural protein NS3; NS3 has to form a complex with its cofactor NS2B to achieve proteolytic activity; His6 (cleaved yes); made in house
T3 sequence (Q2YHF2 1475-1652 limits assumed): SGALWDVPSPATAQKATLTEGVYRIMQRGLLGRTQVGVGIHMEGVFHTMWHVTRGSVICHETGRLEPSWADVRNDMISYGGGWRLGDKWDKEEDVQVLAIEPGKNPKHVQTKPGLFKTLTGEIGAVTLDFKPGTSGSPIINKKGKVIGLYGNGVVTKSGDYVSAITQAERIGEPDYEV
T3 sequence (Q2YHF2 1397-1436 limits assumed): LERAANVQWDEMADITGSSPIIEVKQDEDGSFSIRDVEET
Procedure: Measurements with the dengue 4 virus protease construct (bD4Pro; expressed and purified by a similar methodology as described for bZiPro15 with slight modification of using Tobacco Etch Virus (TEV) protease instead of thrombin for His6‐tag cleavage) were performed in a Cytation 3 Mulitmode plate reader with λ ex at 380 nm and λ em at 460 nm. Assays were carried out as triplicate at 37 °C. Before measurement, the protease (final assay concentration 3 nM) was preincubated with varying concentrations of inhibitors in assay buffer (20 mM Tris pH 8.5, 10 % glycerol, 0.01 % Triton X‐100) for 1 h at room temperature in Corning black clear bottom 96‐well plates. The reaction was started by addition of the substrate Benzoyl‐Nle‐Lys‐Arg‐Arg‐AMC (final assay concentration 50 μM, K M=48.4 μM). Fluorescent readings were recorded at 1‐minute intervals over 10 minutes. The steady‐state rates v i in presence of inhibitor were calculated from the slopes of the progress curves using Graph Pad Prism. The v i values were fitted to Equation (2) as function of the inhibitor concentration [I] providing the IC50 values, where v 0 is the rate in absence of inhibitor and s a slope factor. The obtained IC50 values were finally converted into K i values by the Cheng‐Prusoff Equation (2).(2) vi=v0/1+I/IC50^s (3) Ki=IC50/1+S/KM

[5] = target: T4, bZiPro (unlinked binary Zika virus NS2B-NS3 protease) (Zika virus, UniProt A0A024B7W1); assay: Enzyme kinetics with bZiPro, fluorogenic substrate Phac-Leu-Lys-Lys-Arg-AMC; conditions: for Ki: K i bZiPro, mean±SD of at least three independent measurements, substrate 10 μM in assay, room temperature, pH 8.5
T4 construct: The viral protease consists of the N‐terminal third of the nonstructural protein NS3; the NS2B construct ends at Glu96; His6 (cleaved yes); made in house
T4 sequence (A0A024B7W1 1503-1680 limits assumed): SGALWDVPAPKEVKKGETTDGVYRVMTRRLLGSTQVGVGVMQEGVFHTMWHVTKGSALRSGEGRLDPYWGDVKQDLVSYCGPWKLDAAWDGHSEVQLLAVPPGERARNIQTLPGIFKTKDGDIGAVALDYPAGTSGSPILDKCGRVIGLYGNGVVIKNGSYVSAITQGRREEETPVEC
T4 sequence (A0A024B7W1 1425-1464 limits assumed): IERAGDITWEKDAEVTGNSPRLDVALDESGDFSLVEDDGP
Procedure: as §2
The constants K M and V max were obtained from independent measurements with six different substrate concentrations in absence of inhibitor. For inhibitor 10 with bZiPro, additional measurements at three substrate concentrations (10, 5, and 2.5 μM in assay) were performed to obtain the Dixon plot shown in Figure 4.

Sequence of furin (P09958 108-794): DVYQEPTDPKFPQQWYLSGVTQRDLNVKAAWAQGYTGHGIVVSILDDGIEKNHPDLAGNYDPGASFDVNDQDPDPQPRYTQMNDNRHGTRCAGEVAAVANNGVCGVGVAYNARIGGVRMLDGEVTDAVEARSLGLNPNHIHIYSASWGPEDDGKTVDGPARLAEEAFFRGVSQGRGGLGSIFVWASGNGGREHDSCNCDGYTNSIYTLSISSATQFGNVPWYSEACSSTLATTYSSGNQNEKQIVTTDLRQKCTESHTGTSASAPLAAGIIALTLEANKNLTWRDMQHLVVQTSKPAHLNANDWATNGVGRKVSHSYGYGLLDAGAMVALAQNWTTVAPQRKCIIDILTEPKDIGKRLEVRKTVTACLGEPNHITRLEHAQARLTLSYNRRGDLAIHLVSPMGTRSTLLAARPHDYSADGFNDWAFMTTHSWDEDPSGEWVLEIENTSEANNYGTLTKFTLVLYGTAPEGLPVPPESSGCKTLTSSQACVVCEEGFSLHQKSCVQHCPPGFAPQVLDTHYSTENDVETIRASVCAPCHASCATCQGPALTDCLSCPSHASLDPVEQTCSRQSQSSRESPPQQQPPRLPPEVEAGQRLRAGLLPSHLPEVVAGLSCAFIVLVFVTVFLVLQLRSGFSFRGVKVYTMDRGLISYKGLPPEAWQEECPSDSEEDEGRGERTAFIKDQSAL

Row | SMILES | inhibition of furin [1] | inhibition of trypsin [2] | Ki [3] [nM] | Ki [4] [nM] | Ki [5] [nM] | binding mode from Dixon plot of bZiPro inhibition ([5]; substrate 10, 5 and 2.5 μM, bZiPro 1.96 nM in assay)
1 | N=C(N)N[C@@H]1CCCCNC(=O)[C@H](CCCCN)NC(=O)[C@H](CCCCN)NC(=O)Cc2cccc(c2)CNC(=O)CNC1=O [Inhibitor 10, 1‐((8R,15S,18S)‐15,18‐bis(4‐aminobutyl)‐4,7,14,17,20‐pentaoxo‐3,6,13,16,19‐pentaaza‐1(1,3)‐benzenacyclohenicosaphane‐8‐yl)guanidine] | could not detect any inhibition | could not detect any inhibition | 138 ± 31 | 142 ± 10 | 1.57 ± 0.32 | competitive reversible
2 | N=C(N)N[C@@H]1CCCCNC(=O)[C@H](CCCCN)NC(=O)[C@H](CCCCN)NC(=O)Cc2cccc(c2)NC(=O)CNC1=O [Inhibitor 11] | could not detect any inhibition | could not detect any inhibition | 47600 ± 2500 | 60600 ± 5300 | 1420 ± 270 | –
3 | N=C(N)N[C@@H]1CCCCNC(=O)[C@H](CCCCN)NC(=O)[C@H](CCCCN)NC(=O)Cc2cccc(c2)CNC(=O)[C@H]2CCCN2C1=O [Inhibitor 19] | – | – | 850 ± 68 | 4080 ± 260 | 17.7 ± 0.5 | –

From PMC7497253, “Structure‐Based Macrocyclization of Substrate Analogue NS2B‐NS3 Protease Inhibitors of Zika, West Nile and Dengue viruses” (Chemmedchem, 2020)
